{"source": "patent US20210069157A1", "about": "“AGENT FOR TREATMENT OF PBC” (Kowa Company, Ltd, priority 2016, published 2021)", "key": {"[1]": {"tested_on": "patients with dyslipidemia showing a high level of triglyceride (TG)", "assay": "Pooled clinical trial data (8 tests, 12 weeks or more): effects on ALP and total bilirubin", "assay_type": "in vivo, human", "set-up": "ALP level, Rate of change (LSmean) / total bilirubin level, Rate of change (LSmean): unit not given here", "settings": "for ALP level, Rate of change (LSmean) / total bilirubin level, Rate of change (LSmean): 12 weeks vs baseline; for ALP level, Rate of change (LSmean): placebo 0.5; for total bilirubin level, Rate of change (LSmean): placebo 6.1", "experimental": "Compound. A was administered at a dose of 0.05 to 0.4 mg per day to Compound A group. […] Note that comparisons between the groups were investigated by using covariance analysis with baseline levels used as covariates."}, "[2]": {"tested_on": "patients with dyslipidemia showing a high level of TG being treated with ursodeoxycholic acid", "assay": "Pooled clinical trial data, subset being treated with ursodeoxycholic acid: effects on ALP and total bilirubin", "assay_type": "in vivo, human", "experimental": "Data of patients being treated with ursodeoxycholic acid (15 cases in total) were extracted from the data obtained in a clinical trial (8 tests with an administration period of 12 weeks or more) of Compound A, which had been performed for patients with dyslipidemia showing a high level of TG, the effects of Compound A for the ALP and the total bilirubin were investigated. Compound A was administered at a dose of 0.05 to 0.4 mg per day to Compound A group. Further, placebo was administered to a control group. Each compound was administered to Compound A group and a control group for 12 weeks, and changes in the levels of ALP before and after the administration are shown in Table 3 and FIG. 3, and changes in the levels of total bilirubin before and after the administration are shown in Table 4 and FIG. 4. Note that comparisons between the groups were investigated by using covariance analysis with baseline levels used as covariates."}, "[3]": {"settings": "0.05 to 0.4 mg per day, 12 weeks"}, "[4]": {"settings": "patients being treated with ursodeoxycholic acid, 12 weeks"}}}
{"smiles": "CC[C@@H](Oc1cccc(CN(CCCOc2ccc(OC)cc2)c2nc3ccccc3o2)c1)C(=O)O", "note": "[Compound A, (R)-2-[3-[[N-(benzoxazol-2-yl)-N-3-(4-methoxyphenoxy)propyl]aminomethyl]phenoxy] butyric acid]", "values": [{"measurement": "effect on level of ALP as compared with placebo", "setting": "[1]; [3]", "result": "decreases dose-dependently"}, {"measurement": "effect on level of total bilirubin as compared with placebo", "setting": "[1]; [3]", "result": "decreases dose-dependently"}, {"measurement": "ALP level, Rate of change (LSmean)", "setting": "[1]; Compound A 0.05 mg/day", "result": "−13.4"}, {"measurement": "total bilirubin level, Rate of change (LSmean)", "setting": "[1]; Compound A 0.05 mg/day", "result": "−16.4"}, {"measurement": "total bilirubin level, 12 Weeks", "setting": "[1]; Compound A 0.05 mg/day, 12 weeks, n 37, baseline 0.8", "result": 0.6, "unit": "mg/dL"}, {"measurement": "ALP level, 12 Weeks", "setting": "[1]; Compound A 0.05 mg/day, 12 weeks, n 37, baseline 234.4", "result": 201.5, "unit": "IU/L"}, {"measurement": "ALP level, Rate of change (LSmean)", "setting": "[1]; Compound A 0.1 mg/day", "result": "−22.1"}, {"measurement": "total bilirubin level, Rate of change (LSmean)", "setting": "[1]; Compound A 0.1 mg/day", "result": "−7.7"}, {"measurement": "total bilirubin level, 12 Weeks", "setting": "[1]; Compound A 0.1 mg/day, 12 weeks, n 127, baseline 0.8", "result": 0.7, "unit": "mg/dL"}, {"measurement": "ALP level, 12 Weeks", "setting": "[1]; Compound A 0.1 mg/day, 12 weeks, n 127, baseline 228.4", "result": 177.4, "unit": "IU/L"}, {"measurement": "ALP level, Rate of change (LSmean)", "setting": "[1]; Compound A 0.2 mg/day", "result": "−29.4"}, {"measurement": "total bilirubin level, Rate of change (LSmean)", "setting": "[1]; Compound A 0.2 mg/day", "result": "−11.9"}, {"measurement": "total bilirubin level, 12 Weeks", "setting": "[1]; Compound A 0.2 mg/day, 12 weeks, n 846, baseline 0.8", "result": 0.7, "unit": "mg/dL"}, {"measurement": "ALP level, 12 Weeks", "setting": "[1]; Compound A 0.2 mg/day, 12 weeks, n 846, baseline 235.6", "result": 164.7, "unit": "IU/L"}, {"measurement": "ALP level, Rate of change (LSmean)", "setting": "[1]; Compound A 0.4 mg/day", "result": "−35.3"}, {"measurement": "total bilirubin level, Rate of change (LSmean)", "setting": "[1]; Compound A 0.4 mg/day", "result": "−10.4"}, {"measurement": "total bilirubin level, 12 Weeks", "setting": "[1]; Compound A 0.4 mg/day, 12 weeks, n 319, baseline 0.8", "result": 0.6, "unit": "mg/dL"}, {"measurement": "ALP level, 12 Weeks", "setting": "[1]; Compound A 0.4 mg/day, 12 weeks, n 319, baseline 225.1", "result": 145.0, "unit": "IU/L"}, {"measurement": "effect on level of ALP compared with fenofibrate 200 mg per day", "setting": "[1]; Compound A at a dose of 0.1 mg or more, 12 weeks", "result": "decreases the level of ALP more strongly than the fenofibrate at the maximum clinical dose"}, {"measurement": "total bilirubin level, Rate of change (LSmean)", "setting": "[2]; Compound A 0.05 to 0.4 mg per day, 12 weeks vs baseline, patients on UDCA, placebo 41.2", "result": "−18.5"}, {"measurement": "ALP level, Rate of change (LSmean)", "setting": "[2]; Compound A 0.05 to 0.4 mg per day, 12 weeks vs baseline, patients on UDCA, placebo −1.1", "result": "−22.6"}, {"measurement": "total bilirubin level, 12 Weeks", "setting": "[2]; Compound A 0.05 to 0.4 mg per day, 12 weeks, patients on UDCA, n 13, baseline 0.7", "result": 0.6, "unit": "mg/dL"}, {"measurement": "ALP level, 12 Weeks", "setting": "[2]; Compound A 0.05 to 0.4 mg per day, 12 weeks, patients on UDCA, n 13, baseline 295.5", "result": 229.5, "unit": "IU/L"}, {"measurement": "effect on level of ALP", "setting": "[2]; [4]", "result": "decreases"}, {"measurement": "effect on level of total bilirubin", "setting": "[2]; [4]", "result": "decreases"}]}
